Starred links: 1 amine or outer side, 2 acyl side, 3 side chain; linkers in the order of their positions; H or OH if unused. Positions of bridges follow the written chain, without caps; N, C: chain ends. Non-standard residues stand in square brackets, D forms with d. Residues, ends and D or L forms follow the SMILES beside them. Groups on a side chain read outwards from the residue. *: point of attachment. X6 = CSCC[C@H](NC(=O)c1ccc(CNC(=O)CN2CCN(CC(=O)O)CCN(CC(=O)O)CCN(CC(=O)O)CC2)cc1)C(=O)N[C@H](C(=O)N[C@@H](CCCCN*)C(=O)O)C(C)C; Ala(piperidin-4-yl) = O=C([C@H](CC1CCN([*:3])CC1)N[*:1])[*:2]; DOTA = O=C(O)CN1CCN(CC(=O)O)CCN(CC(=O)*)CCN(CC(=O)O)CC1; Trp(5-F) = N[C@@H](Cc1c[nH]c2ccc(F)cc12)C(=O)O; X1 = C[C@@H](c1ccccc1)[C@H](N[*:1])C(=O)[*:2]; γGlu = O=C(O)[C@H](CCC(=O)[*:2])N[*:1]; Ala(4-THP) = N[C@@H](CC1CCOCC1)C(=O)O; Lys(Me2) = CN(C)CCCC[C@H](N)C(=O)O; Val(3-OH) = CC(C)(O)[C@H](N)C(=O)O; PEG4 = NCCOCCOCCOCCOCCC(=O)O; Tle = CC(C)(C)[C@H](N)C(=O)O; hLeu = CC(C)CC[C@H](N)C(=O)O
Tests used:
[1] = target: T1, 2Ig B7-H3 (Homo sapiens, UniProt Q5ZPR3); assay: SPR binding affinity to 2Ig B7-H3; conditions: 37° C.; read-out: 2Ig B7-H3_KD (nM) at 37° C.
T1 sequence (Q5ZPR3 29-316 isoform Q5ZPR3-2 limits assumed): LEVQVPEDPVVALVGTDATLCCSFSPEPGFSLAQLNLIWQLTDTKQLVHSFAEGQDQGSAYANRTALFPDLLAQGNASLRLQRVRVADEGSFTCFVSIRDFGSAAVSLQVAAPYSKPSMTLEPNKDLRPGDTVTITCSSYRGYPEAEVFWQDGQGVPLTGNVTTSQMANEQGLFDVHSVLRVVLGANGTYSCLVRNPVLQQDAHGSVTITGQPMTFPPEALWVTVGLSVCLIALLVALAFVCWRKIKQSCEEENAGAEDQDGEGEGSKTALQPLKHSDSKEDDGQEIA

[2] = target: T2, human 4lg B7-H3 (Homo sapiens, UniProt Q5ZPR3); assay: Affinity determination by surface plasmon resonance (SPR) to 4Ig B7-H3; conditions: SPR KD—37° C., 4Ig B7-H3; 37° C. flow cell temperature
T2 sequence (Q5ZPR3 29-534): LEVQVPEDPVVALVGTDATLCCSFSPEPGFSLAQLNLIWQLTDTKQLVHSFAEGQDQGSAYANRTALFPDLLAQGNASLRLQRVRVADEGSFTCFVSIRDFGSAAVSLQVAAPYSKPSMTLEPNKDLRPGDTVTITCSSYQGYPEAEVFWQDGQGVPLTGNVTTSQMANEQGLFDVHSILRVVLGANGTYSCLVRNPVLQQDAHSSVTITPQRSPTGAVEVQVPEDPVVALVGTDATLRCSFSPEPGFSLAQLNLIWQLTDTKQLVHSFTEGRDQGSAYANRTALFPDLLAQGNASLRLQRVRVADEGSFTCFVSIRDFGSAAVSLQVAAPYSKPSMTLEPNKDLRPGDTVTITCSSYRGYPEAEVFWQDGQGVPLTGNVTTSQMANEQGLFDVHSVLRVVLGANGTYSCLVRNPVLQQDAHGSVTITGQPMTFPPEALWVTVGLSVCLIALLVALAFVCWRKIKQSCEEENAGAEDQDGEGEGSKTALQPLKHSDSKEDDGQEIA

[3] = tested on: Calu-6 cell line; assay: Cell associated (bound) fraction of [177Lu]Lu-labeled peptide in Calu-6 cells; type: cell-based, Human; conditions: 1 hour, 37° C.
Summary of the method: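 Peptide conjugate was labelled with [177Lu]LuCl3 in ammonium acetate pH ~5 at 80 °C for 17-20 min, with purity checked by RP-HPLC. Calu-6 suspensions (5 million cells/mL in 1% PBSA) were incubated with 0.8 μCi for 1 h at 37 °C. Cell pellets were gamma-counted after two cold PBS/BSA washes, giving the bound fraction against the unbound supernatant plus washes.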

[4] = tested on: Calu-6 cell line; assay: Net internalization of [177Lu]Lu-labeled peptide in Calu-6 cells; type: cell-based, Human; conditions: 1 hour, 37° C., glycine pH 2.5 acid wash
Summary of the method: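 Peptide conjugate labeled with [177Lu]LuCl3 at pH ~5, 80 °C, 17–20 min, and purity checked by RP-HPLC. B7-H3-expressing human Calu-6 lung cancer cells at 5 million cells/mL in 1% PBSA. Internalized fraction: counts left after two 3 min 50 mM glycine pH 2.5 washes and NaOH lysis, gamma counted against bound fraction.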

Compound	Kd [1] [nM]	Kd [2] [µM]	% cell associated fraction [3]	% net internalization [4]
CC(=O)N[C@@H](CCC(C)C)C(=O)N[C@@H](Cc1ccc(O)cc1)C(=O)N[C@H]1CSSC[C@@H](C(=O)N[C@@H](Cc2c[nH]c3ccc(F)cc23)C(=O)N[C@@H](Cc2ccccc2)C(=O)N[C@H](C(=O)N[C@H](CCC(=O)O)C(N)=O)C(C)(C)O)NC(=O)[C@H](Cc2ccc(O)cc2)NC(=O)[C@H](C(C)C)NC(=O)[C@H](CC(=O)O)NC(=O)[C@H](CC2CCOCC2)NC(=O)[C@H](CC2CCN(C(=O)CC[C@H](NC(=O)CN3CCN(CC(=O)O)CCN(CC(=O)O)CCN(CC(=O)O)CC3)C(=O)O)CC2)NC(=O)CNC(=O)[C@H](C(C)(C)C)NC1=O [compound 475, Ac-hLeu-Y-C-Tbg-G-Pip(gE-DOTA)Ala-ThpA-D-V-Y-C-5FW-F-hydroxyVal-dGlu-CONH2] (Ac-[hLeu]YC[Tle]G[Ala(piperidin-4-yl)]([γGlu-DOTA])[Ala(4-THP)]DVYC[Trp(5-F)]F[Val(3-OH)][dE]-NH2; disulfide 3-11)	> 10000	0.001 to 0.01	–	–
CC(=O)N[C@@H](CCC(C)C)C(=O)N[C@@H](Cc1ccc(O)cc1)C(=O)N[C@H]1CSSC[C@@H](C(=O)N[C@@H](Cc2c[nH]c3ccc(F)cc23)C(=O)N[C@@H](Cc2ccccc2)C(=O)N[C@H](C(=O)N[C@H](CCC(=O)O)C(N)=O)C(C)(C)O)NC(=O)[C@H](Cc2ccc(O)cc2)NC(=O)[C@H](C(C)C)NC(=O)[C@H](CC(=O)O)NC(=O)[C@H](CC2CCN(C(=O)CCOCCOCCOCCOCCNC(=O)CN3CCN(CC(=O)O)CCN(CC(=O)O)CCN(CC(=O)O)CC3)CC2)NC(=O)[C@H](CCCCN)NC(=O)CNC(=O)[C@H](C(C)(C)C)NC1=O [compound 410, Ac-hLeu-Y-C-Tbg-G-K-Pip(PEG4-DOTA)Ala-D-V-Y-C-5FW-F-hydroxyVal-dGlu-CONH2] (Ac-[hLeu]YC[Tle]GK[Ala(piperidin-4-yl)]([PEG4-DOTA])DVYC[Trp(5-F)]F[Val(3-OH)][dE]-NH2; disulfide 3-11)	820	< 0.001	B (25<%≤50)	A (%≤25)
CC(=O)N[C@@H](CCC(C)C)C(=O)N[C@@H](Cc1ccc(O)cc1)C(=O)N[C@H]1CSSC[C@@H](C(=O)N[C@@H](Cc2c[nH]c3ccc(F)cc23)C(=O)N[C@H](C(=O)N[C@H](C(=O)N[C@H](C)C(=O)O)C(C)(C)O)[C@@H](C)c2ccccc2)NC(=O)[C@H](Cc2ccc(O)cc2)NC(=O)[C@H](C(C)C)NC(=O)[C@H](CC(=O)O)NC(=O)[C@H](CC2CCN(C(=O)CCOCCOCCOCCOCCNC(=O)CN3CCN(CC(=O)O)CCN(CC(=O)O)CCN(CC(=O)O)CC3)CC2)NC(=O)[C@H](CCCCN(C)C)NC(=O)CNC(=O)[C@H](C(C)(C)C)NC1=O [compound 521, Ac-hLeu-Y-C-Tbg-G-Lys(Me)2-Pip(PEG4-DOTA)Ala-D-V-Y-C-5FW-[(2S, 3S)beta-Me-Phe]-hydroxyVal-dAla-COOH] (Ac-[hLeu]YC[Tle]G[Lys(Me2)][Ala(piperidin-4-yl)]([PEG4-DOTA])DVYC[Trp(5-F)][X1][Val(3-OH)][dA]-OH; disulfide 3-11)	260	< 0.001	–	–

More lines, in order of falling Kd [1], values ahead:

Kd [1] [nM]	Kd [2] [µM]	Compound	% cell associated fraction [3]	% net internalization [4]
6200	0.001 to 0.01	CC(=O)N[C@@H](CCC(C)C)C(=O)N[C@@H](Cc1ccc(O)cc1)C(=O)N[C@H]1CSSC[C@@H](C(=O)N[C@@H](Cc2c[nH]c3ccc(F)cc23)C(=O)N[C@@H](Cc2ccccc2)C(=O)N[C@H](C(=O)O)C(C)(C)O)NC(=O)[C@H](Cc2ccc(O)cc2)NC(=O)[C@H](C(C)C)NC(=O)[C@H](CC(=O)O)NC(=O)[C@H](CC2CCN(C(=O)CN3CCN(CC(=O)O)CCN(CC(=O)O)CCN(CC(=O)O)CC3)CC2)NC(=O)[C@H](CCCCN)NC(=O)CNC(=O)[C@H](C(C)(C)C)NC1=O [compound 344, Ac-hLeu-Y-C-Tbg-G-K-Pip(DOTA)Ala-D-V-Y-C-5FW-F-hydroxyVal-COOH] (Ac-[hLeu]YC[Tle]GK[Ala(piperidin-4-yl)](DOTA)DVYC[Trp(5-F)]F[Val(3-OH)]-OH; disulfide 3-11)	–	–
510	< 0.001	CSCC[C@H](NC(=O)c1ccc(CNC(=O)CN2CCN(CC(=O)O)CCN(CC(=O)O)CCN(CC(=O)O)CC2)cc1)C(=O)N[C@H](C(=O)N[C@@H](CCCCNC(=O)CC[C@@H]1NC(=O)CNC(=O)[C@H](C(C)(C)C)NC(=O)[C@@H](NC(=O)[C@H](Cc2ccc(O)cc2)NC(=O)[C@H](CCC(C)C)NC(C)=O)CSSC[C@@H](C(=O)N[C@@H](Cc2c[nH]c3ccc(F)cc23)C(=O)N[C@H](C(=O)N[C@H](C(=O)N[C@H](CO)C(=O)O)C(C)(C)O)[C@@H](C)c2ccccc2)NC(=O)[C@H](Cc2ccc(O)cc2)NC(=O)[C@H](C(C)C)NC(=O)[C@H](CC(=O)O)NC(=O)[C@H](CC2CCOCC2)NC1=O)C(=O)O)C(C)C [compound 519, Ac-hLeu-Y-C-Tbg-G-Glu[&Lys(OH)-Val-Met-AmBz-DOTA]-ThpA-D-V-Y-C-5FW-[(2S, 3S)beta-Me-Phe]-hydroxyVal-dSer-COOH] (Ac-[hLeu]YC[Tle]GE(X6)[Ala(4-THP)]DVYC[Trp(5-F)][X1][Val(3-OH)][dS]-OH; disulfide 3-11)	–	–
